# Assay results as given in patent EP3685668B1, “COMPOSITION COMPRISING ACIBENZOLAR-S-METHYL AS EFFECTIVE INGREDIENT FOR CONTROLLING BURSAPHELENCHUS XYLOPHILUS DISEASE AND METHOD FOR CONTROLLING BURSAPHELENCHUS XYLOPHILUS USING SAME” (Industry Foundation of Chonnam National University, priority 2017, dated 2019).
# Experiments:
# Assay in all cases: qRT-PCR expression of induced resistance gene in pine tree callus
# Type in all cases: cell-based
# Xyloglucan = settings: 200 µg/mℓ; for Expression of induced resistance gene, Xyloglucan: 24 hours
# Experimental: (§1) For in vitro analysis of induced resistance, the expression of PR genes and other plant defense-related genes was determined, which are evolved in various defense mechanisms including induced resistance. The primers of sixteen induced resistance-related genes of pine tree used in this invention were listed in the below and elongation factor_1 alpha were used as a reference gene. [Table 4] The primer list of defense resistance-related genes
# (§2) After the treatment with 200 µg / mℓ of candidates of the selected induced resistance material, expression of the induced resistance-related gene in pine callus was determined by qRT-PCR using the primer pairs of defense resistance-related genes in Table 4. As a candidate group of an induced resistance material in pine tree, acibenzolar-S-methyl (ASM), TDL (Tiadinil), ITL (Isotianil), PBZ (Probenzole), AZO (Azoxystrobin), VMA (Validamycin A), MeJA (Methyl jasmonate), BABA (DL-3-aminobutyric acid), 2,3-BDO (2,3-Butanediol), GABA (r-Aminobutyric acid), glucan (Glucan), ER (Ergosterol), and AZA (Azelaic acid) were used. For the in vitro analysis of the expression of induced resistance gene in pine callus, the selected induced resistance materials were applied with 500 µℓ of LM liquid medium on a surface of pine tree callus (100 mg) in 12-well microplate to give final concentration of 200 µg/mℓ. Then, the callus surface was sufficiently reacted for 24 hours with the candidate of pine tree induced resistance material by shaking at 50 rpm in a 25 °C shaking incubator under dark condition. RNAs were extracted from the callus after completion of the reaction with an induced resistance material, followed by synthesis of cDNAs. Then, by carrying out qRT-PCR, the expression of induced resistance genes was determined. [Table 5] Expression of induced resistance gene in pine tree callus by TDL, PBZ, ASM, ITL, AZO, VMA, glucan, and AZA
# (§3) Based on the results of assay using young plants and gene expression by selected induce resistance materials, it seemed that acibenzolar-S-methyl had the most excellent effect. Thus, the following tests were carried out using acibenzolar-S-methyl only. Expression of the induced resistance genes at different culture time after the chemical treatment was examined. For the in vitro assay, LM medium containing pine tree callus was treated with acibenzolar-S-methyl at concentration of 200 µg / mℓ, followed by reaction for 1 day, 7 days, or 14 days in a 25°C shaking incubator under dark condition. RNAs were extracted from the callus after the reaction followed by synthesis of cDNAs. Then, by carrying out qRT-PCR, the expression of the induced resistance genes was determined. Depending on reaction time after the treatment, i.e., after 1 day, 7 days, or 14 days, the expression of the obtained induced resistance genes was examined. As a result of the in vitro callus assay depending on reaction time after the treatment with acibenzolar-S-methyl, the expression of the induced resistance-related genes is the highest at 1 day after the treatment with acibenzolar-S-methyl and gradually diminished over time, as it is shown in Table 7. In this regard, it is contemplated that the expression of genes acquired by acibenzolar-S-methyl is not maintained in highly expressed state until the pathogen invasion and just memorized with at minimum level so that the energy consumption by plant can be efficiently managed. [Table 7] Expression of induced resistance gene in pine tree callus by acibenzolar-S-methyl depending on reaction time
# (§4) To have an in vitro assay according to different methods of treatment with acibenzolar-S-methyl, two separate treatment methods, i.e., surface treatment (spraying treatment) of pine tree callus and direct application of the induced resistance material to an LM medium containing pine tree callus, were performed. […]
# PR_5 family = settings: for Expression of induced resistance gene, PR_5 family: 24 hours
# Experimental: as §1, §2, §3, §4
# Antipeptide = settings: 200 µg/mℓ; for Expression of induced resistance gene, Antipeptide: 24 hours
# Experimental: as §1, §2, §3, §4
# PR_9 family = settings: for Expression of induced resistance gene, PR_9 family: 24 hours
# Experimental: as §1, §2, §3, §4
# Heat shock 70 = settings: for Expression of induced resistance gene, Heat shock 70: 24 hours
# Experimental: as §1, §2, §3, §4
# Hydroxyproline = settings: for Expression of induced resistance gene, Hydroxyproline: 24 hours
# Experimental: as §1, §2, §3, §4
# [1] = Direct supplying as a medium component
# [2] = 200 µg/mℓ, Direct supplying as a medium component
# [3] = concentration series, 200 µg/mℓ
compound,measurement,setting,value
"CSC(=O)c1cccc2nnsc12 [ASM, acibenzolar-S-methyl]","Expression of induced resistance gene, Xyloglucan",Xyloglucan,2.36
same,"Expression of induced resistance gene, Xyloglucan",Xyloglucan; [1],17.51
same,"Expression of induced resistance gene, Xyloglucan",Xyloglucan; Spraying,2.36
same,"Gene expression level, Xyloglucan",Xyloglucan; After 1 day,29.86
same,"Gene expression level, Xyloglucan",Xyloglucan; After 7 days,2.81
same,"Gene expression level, Xyloglucan",Xyloglucan; After 14 days,1.06
same,"Gene expression level, Xyloglucan",Xyloglucan; concentration series,37.01
same,"Expression of induced resistance gene, PR_5 family",PR_5 family; 200 µg/mℓ,2.93
same,"Expression of induced resistance gene, PR_5 family",PR_5 family; [2],5.9
same,"Expression of induced resistance gene, PR_5 family","PR_5 family; 200 µg/mℓ, Spraying",2.93
same,"Gene expression level, PR_5 family","PR_5 family; 200 µg/mℓ, After 1 day",5.9
same,"Gene expression level, PR_5 family","PR_5 family; 200 µg/mℓ, After 7 days",0.45
same,"Gene expression level, PR_5 family","PR_5 family; 200 µg/mℓ, After 14 days",0.17
same,"Gene expression level, PR_5 family","PR_5 family; concentration series, 2 µg/mℓ",4
same,"Gene expression level, PR_5 family","PR_5 family; concentration series, 20 µg/mℓ",8.515
same,"Gene expression level, PR_5 family",PR_5 family; [3],2.809
same,"Expression of induced resistance gene, Antipeptide",Antipeptide,1.83
same,"Expression of induced resistance gene, Antipeptide",Antipeptide; [1],7.21
same,"Expression of induced resistance gene, Antipeptide",Antipeptide; Spraying,1.83
same,"Gene expression level, Antipeptide",Antipeptide; After 1 day,10.63
same,"Gene expression level, Antipeptide",Antipeptide; After 7 days,1.28
same,"Gene expression level, Antipeptide",Antipeptide; After 14 days,0.58
same,"Gene expression level, Antipeptide",Antipeptide; concentration series,5.352
same,"Expression of induced resistance gene, PR_9 family",PR_9 family; 200 µg/mℓ,2
same,"Expression of induced resistance gene, PR_9 family",PR_9 family; [2],8.57
same,"Expression of induced resistance gene, PR_9 family","PR_9 family; 200 µg/mℓ, Spraying",2
same,"Gene expression level, PR_9 family","PR_9 family; 200 µg/mℓ, After 1 day",1
same,"Gene expression level, PR_9 family","PR_9 family; 200 µg/mℓ, After 7 days",1
same,"Gene expression level, PR_9 family","PR_9 family; 200 µg/mℓ, After 14 days",1
same,"Gene expression level, PR_9 family","PR_9 family; concentration series, 2 µg/mℓ",0.7526
same,"Gene expression level, PR_9 family","PR_9 family; concentration series, 20 µg/mℓ",0.79
same,"Gene expression level, PR_9 family",PR_9 family; [3],0.9526
same,"Expression of induced resistance gene, Heat shock 70",Heat shock 70; 200 µg/mℓ,1.75
same,"Expression of induced resistance gene, Heat shock 70",Heat shock 70; [2],10.06
same,"Expression of induced resistance gene, Heat shock 70","Heat shock 70; 200 µg/mℓ, Spraying",1.75
same,"Gene expression level, Heat shock 70","Heat shock 70; 200 µg/mℓ, After 1 day",2.27
same,"Gene expression level, Heat shock 70","Heat shock 70; 200 µg/mℓ, After 7 days",0.97
same,"Gene expression level, Heat shock 70","Heat shock 70; 200 µg/mℓ, After 14 days",0.77
same,"Gene expression level, Heat shock 70","Heat shock 70; concentration series, 20 µg/mℓ",23.26
same,"Gene expression level, Heat shock 70",Heat shock 70; [3],53.45
same,"Expression of induced resistance gene, Hydroxyproline",Hydroxyproline; 200 µg/mℓ,1.79
same,"Expression of induced resistance gene, Hydroxyproline",Hydroxyproline; [2],7.89
same,"Expression of induced resistance gene, Hydroxyproline","Hydroxyproline; 200 µg/mℓ, Spraying",1.79
same,"Gene expression level, Hydroxyproline","Hydroxyproline; 200 µg/mℓ, After 1 day",10.06
same,"Gene expression level, Hydroxyproline","Hydroxyproline; 200 µg/mℓ, After 7 days",1.2
same,"Gene expression level, Hydroxyproline","Hydroxyproline; 200 µg/mℓ, After 14 days",0.32
same,"Gene expression level, Hydroxyproline","Hydroxyproline; concentration series, 2 µg/mℓ",3.138
same,"Gene expression level, Hydroxyproline","Hydroxyproline; concentration series, 20 µg/mℓ",4.438
